Where a name gives a salt, the structure may show the parent alone.
Tests used:
[1] = system: spontaneously hypertensive rat; test: Telemetric monitoring of blood pressure and heart rate in spontaneously hypertensive rats, compounds given via the drinking water; format: in vivo; conditions: SHR; for DBP, change vs. baseline / HR, change vs. baseline / SBP, change vs. baseline: mean, n=5
From the text: Male spontaneously hypertensive rats (=SHR, insulin resistant strain from Charles River; aged 6 months) were equipped with telemetry transmitters for continuous monitoring of blood pressure and heart rate (as described below). After 3 days of monitoring under baseline (untreated) conditions, animals were divided into two groups receiving an AT1-receptor antagonist (eprosartan mesylate, hereinafter referred to as experiment I; or candesartan cilexetil, hereinafter referred to as experiment II) or an AT1-receptor antagonist plus daglutril in combination. In experiment II, a third group of rats was included, receiving only daglutril. Compounds were administered via the drinking water, and daily drug intake was measured by weighing the water bottles thrice weekly. Intended daily doses in experiment I were 60 mg/kg/day of eprosartan mesylate plus, in the combination group, 100 mg/kg/day of daglutril. In experiment II, intended daily doses were 1 mg/kg of candesartan cilexetil, and 100 mg/kg of daglutril in the daglutril only and the combination group. Telemetry transmitters for continuous monitoring of blood pressure, heart rate and locomotor activity (TA11PA-C40, Data Sciences, USA) were implanted intraabdominally under inhalative halothane anesthesia. A midline abdominal incision was made, and the abdominal aorta was visualized by removal of retroperitoneal fat and connective tissue. A ligature was placed caudal of the renal arteries, the aorta was punctured with a 22G needle, and the catheter was advanced into the aorta. The entry point was sealed with tissue adhesive (Vetbond®, 3M, USA), the ligature was removed, and the abdominal incision was closed. Measurements of aortic pressure were taken every 5 minutes (=min) for 4 seconds (=s) each at a sampling rate of 500 Hz, and were corrected for the corresponding ambient pressure (ambient pressure monitor, C11 PR, Data Sciences, USA).
Concentrations of AT1-receptor antagonists and daglutril in the drinking water were adjusted once per week, in order to ensure the intended daily intake. In experiment I, the average daily water intake throughout the 33 days treatment period amounted to 51 and 56 ml/kg in the eprosartan and eprosartan plus daglutril group, respectively, resulting in the uptake of 62 mg/kg/day of eprosartan in both groups, and 104 mg/kg/day of daglutril in the combination group. In experiment II, the average daily water intake during the 25 days treatment period was 64 ml/kg (candesartan only), 62 ml/kg (daglutril only) and 62 ml/kg (candesartan plus daglutril), resulting in daily doses of 0.9 mg/kg of candesartan in both, the candesartan and combination group, and 101 mg/kg and 98 mg/kg of daglutril in the daglutril and combination group, respectively.
The blood pressure, heart rate and activity values, sampled in 5 min intervals by the Dataquest system, were used for calculation of individual 24 hours (=h)-means. These 24 h means were exported to Excel, and group mean values of systolic blood pressure (=SBP), diastolic blood pressure (=DBP), heart rate (=HR), and locomotor activity (=ACT) were calculated for the different treatment groups. For the statistical analysis, a baseline value (pre) was calculated from 3 days prior to compound application, and effects of AT1-receptor antagonist, daglutril and their combination were calculated in relation to this baseline value (average value during the treatment period minus baseline value). The statistical comparison was done by using analysis of variance, followed by two-tailed Student's t-test for comparison of AT1 receptor antagonist and combination groups, both at an error level of P<0.05.

[2] = system: human subjects with congestive heart failure; test: Single dose study of oral daglutril during 12-hour right heart catheterization, subgroup analysis by concomitant losartan potassium; format: in vivo; conditions: human CHF subjects, single oral dose of daglutril (200, 400 or 800 mg groups pooled), with or without concomitant losartan potassium; value is mean change (SE)
Protocol: A randomized, placebo-controlled, parallel group, multi-center, single dose study of oral daglutril (vide supra) during 12-hour right heart catheterization in human subjects with congestive heart failure (=CHF) was performed. Each subject received one dose of daglutril or placebo. The study consisted of three visits (or study days when in-subjects were included). Ambulatory subjects were in hospital for two nights and one day. […]
The primary efficacy parameter was the maximum decrease from baseline over 6 hours for SVR and was compared between treatment groups using analysis of covariance, with the baseline value as covariate and center and NYHA classification as factors. […] In addition, the existence of a dose-response relationship for daglutril was evaluated by investigating linear, quadratic and cubic contrasts. The secondary efficacy parameter was the maximum change from baseline for PCWP and was analyzed in the same way as the primary variable. The maximum decrease from baseline over 12 hours, the change from for each individual time point and the adjusted area under the curve (=AUC) over 6 and 12 hours were analyzed for SVR and PCWP, using similar statistical methodology as for the main parameter of interest. All other tertiary efficacy parameters were analyzed using the same statistical methodology as for the primary efficacy parameter. […]

[3] = experiment II, 25 days via drinking water, candesartan 0.9 mg/kg/day, daglutril 101 mg/kg (alone) or 98 mg/kg (combination)
[4] = experiment I, 33 days via drinking water, eprosartan 62 mg/kg/day, daglutril 104 mg/kg/day in combination

| Compound | DBP, change vs. baseline [1, 3] [mmHg] | HR, change vs. baseline [1, 3] [min⁻¹] | SBP, change vs. baseline [1, 3] [mmHg] | DBP, change vs. baseline [1, 4] [mmHg] | HR, change vs. baseline [1, 4] [min⁻¹] | SBP, change vs. baseline [1, 4] [mmHg] | reduction in blood pressure (in words) ([1]; daglutril given alone) | Placebo corrected mean change of MPAP (average 0.5-6 hrs) [2] |
| --- | --- | --- | --- | --- | --- | --- | --- | --- |
| CCOc1nc2cccc(C(=O)OC(C)OC(=O)OC3CCCCC3)c2n1Cc1ccc(-c2ccccc2-c2nn[nH]n2)cc1 (centres unmarked) [Candesartan, candesartan cilexetil] | −19.7 | -3.0 | −22.8 | – | – | – | – | – |
| CCCCc1ncc(/C=C(\Cc2cccs2)C(=O)O)n1Cc1ccc(C(=O)O)cc1 [Eprosartan, eprosartan mesylate] | – | – | – | −5.6 | -7.6 | −5.9 | – | – |
| CCOC(=O)C(CCc1ccccc1)CC1(C(=O)NC2CCc3ccccc3N(CC(=O)O)C2=O)CCCC1 (centres unmarked) [daglutril, 2-[1-(1-carboxymethyl-2-oxo-2,3,4,5-tetrahydro-1H-benzo[b]azepin-3-ylcarbamoyl)-cyclopentylmethyl]-4-phenyl-butyric acid ethyl ester] | 0.8 | -2.0 | −1.5 | – | – | – | did not lead to a reduction in blood pressure | −3.35 (1.06) mmHg |
